Drawing on patent US11702418B2, “SOS1 inhibitors” (priority 2019, dated 2023), this text covers Ki and IC50 for 29 molecules.

Structures can show the parent of a compound that is named as a salt. Where two headings read alike, the source gives them in different places.

Assay [1] has as its target recombinant human SOS1 polypeptide (amino acids 560-1049) (Homo sapiens (Human), UniProt Q07889). Kind of assay: biochemical. The format is binding.
Method: The ability of a compound of Formula (I) to bind to SOS1 was measured using a HTRF displacement assay. […] After a 1-hour incubation at room temperature, the HTRF signal was measured using Clairostar plate reader (BMG Labtech) according to the manufacturer's instructions. Excitation filter EX-TR was used, and emission 1 was detected at 650-610 nm and emission 2 detected at 620-610 nm. The HTRF ratio was calculated using the formula: [emission 1/emission 2]*10000.
Background signals were calculated from well with a 10 μM inhibitor, known to inhibit 100% at that concentration. The background subtracted signals were converted to % binding relative to DMSO controls. Data were analyzed using XLFIT software (IDBS) using a Morrison equation for competitive binding and Ki's were generated compound of Formula (I).
Another assay relates to pERK in MKN1 cells. The experiment in a line: cells. To be noted: Homo sapiens. It is filed as cell-based.
[2] abbreviates: read-out: Ki, Inhibition of Labeled Tracer Binding to SOS1.
Where [3] appears, read: MKN-1, pERK inhibition, In-Cell Western, MKN1 or H358 cells (Table 24 does not say which), 0.5-1 hour incubation.
The mark [4] stands for this setting: HTRF displacement, Cy5 labelled tracer, Morrison equation for competitive binding, read-out: Ki, Inhibition of Labeled Tracer Binding to SOS1.
The mark [5] stands for this setting: MKN-1, pERK inhibition, In-Cell Western, MKN1 or H358 cells (Table 24 does not say which), 0.5-1 hour incubation, read-out: IC50.

By Ki is commonly meant a dissociation constant, usually derived from enzyme kinetics or from competition with a known ligand. For orientation: IC50 means the midpoint of a concentration-inhibition curve.

Sequence of recombinant human SOS1 polypeptide (amino acids 560-1049) (Q07889 560-1049): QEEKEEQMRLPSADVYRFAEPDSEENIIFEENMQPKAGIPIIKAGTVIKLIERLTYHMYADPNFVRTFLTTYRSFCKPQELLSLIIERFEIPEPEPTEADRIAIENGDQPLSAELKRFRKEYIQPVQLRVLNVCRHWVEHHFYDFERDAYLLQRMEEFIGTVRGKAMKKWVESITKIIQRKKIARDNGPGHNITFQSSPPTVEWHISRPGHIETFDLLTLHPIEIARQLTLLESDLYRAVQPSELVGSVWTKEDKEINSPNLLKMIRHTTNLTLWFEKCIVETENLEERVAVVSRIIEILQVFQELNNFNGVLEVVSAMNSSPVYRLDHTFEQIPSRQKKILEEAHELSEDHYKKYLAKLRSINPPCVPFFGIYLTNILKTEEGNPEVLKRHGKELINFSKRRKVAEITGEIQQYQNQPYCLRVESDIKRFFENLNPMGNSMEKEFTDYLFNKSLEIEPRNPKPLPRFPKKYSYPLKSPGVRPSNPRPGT

For `Cc1c([C@@H](C)Nc2nnc(C)c3ccc(OC[C@H]4CCCN4C)cc23)cccc1C(F)(F)F` [Example 10-25, 4-methyl-N-((R)-1-(2-methyl-3-(trifluoromethyl)phenyl)ethyl)-7-(((R)-1-methylpyrrolidin-2-yl)methoxy)phthalazin-1-amine hydrochloride salt], the inhibitory constant (Ki) in assay [1] (setting [2]) was found to be 1.47 nM. The molecule further showed an IC50 with pERK in MKN1 cells (MKN-1) of 103 nM.
In the case of `COc1c(C#N)cccc1[C@@H](C)Nc1nnc(C)c2cnc(N3CCOCC3)cc12` [Example 17-1, (R)-2-methoxy-3-(1-((4-methyl-7-morpholinopyrido[3,4-d]pyridazin-1-yl)amino)ethyl)benzonitrile], the inhibition constant Ki in assay [1] was determined as 4.33 nM. Besides, the IC50 in the assay with pERK in MKN1 cells (setting [3]) came out at 30 nM.
`Cc1c([C@@H](C)Nc2nnc(C)c3ccc(N4CCC(C)(N(C)C)CC4)cc23)cccc1C(F)(F)F` [Example 10-42, (R)-7-(4-(dimethylamino)-4-methylpiperidin-1-yl)-4-methyl-N-(1-(2-methyl-3-(trifluoromethyl)phenyl)ethyl)phthalazin-1-amine hydrochloride salt]: the inhibitory constant (Ki) in assay [1] (setting [2]) was 0.31 nM. The molecule further displayed an IC50 in the assay with pERK in MKN1 cells (MKN-1) of 43 nM.
As for `CNCc1ccccc1-c1ccc([C@@H](C)Nc2nnc(C(F)(F)F)c3ccc(N4CCOCC4)cc23)s1` [Example 10-2, (R)—N-(1-(5-(2-((methylamino)methyl)phenyl)thiophen-2-yl)ethyl)-7-morpholino-4-(trifluoromethyl)phthalazin-1-amine], the Ki in assay [1] (setting [4]) amounted to 14.9 nM. Besides, the half-inhibitory concentration (IC50) in the assay on pERK in MKN1 cells (setting [5]) was determined as 1370 nM.
In the same order, the values of `Cc1c([C@@H](C)Nc2nnc(C)c3cnc(N4CCN(c5cnn(C)c5)CC4)cc23)cccc1C(F)(F)F` [Example 12-1, (R)-4-methyl-7-(4-(1-methyl-1H-pyrazol-4-yl)piperazin-1-yl)-N-(1-(2-methyl-3-(trifluoromethyl)phenyl)ethyl)pyrido[3,4-d]pyridazin-1-amine] are 0.2 nM and 5 nM.
On the same counts, the results for `Cc1nnc(N[C@H](C)c2cc(F)cc(C(F)(F)F)c2)c2cc(N3CCOCC3)ccc12` [Example 10-50, (R)-N-(1-(3-fluoro-5-(trifluoromethyl)phenyl)ethyl)-4-methyl-7-morpholinophthalazin-1-amine] are 3.74 nM and 205 nM.
In the case of `Cc1c(C(F)F)cccc1[C@@H](C)Nc1nnc(C)c2cnc(N3CCN(c4cnn(C)c4)CC3)cc12` [Example 12-59], the inhibitory constant (Ki) in assay [1] (setting [4]) was found to be 0.47 nM. For the same molecule, in the assay with pERK in MKN1 cells (setting [5]), the IC50 was determined as 19 nM.
In the case of `Cc1nnc(N[C@H](C)c2cc(N)cc(C(F)(F)F)n2)c2cc(N3C[C@H]4CC[C@@H]3CN4C)ncc12` [Example 16-6, N-((R)-1-(4-amino-6-(trifluoromethyl)pyridin-2-yl)ethyl)-4-methyl-7-((1R, 4R)-5-methyl-2,5-diazabicyclo[2.2.2]octan-2-yl)pyrido[3,4-d]pyridazin-1-amine], the Ki in assay [1] (setting [4]) stood at 6.5 nM. In addition, the IC50 in the assay with pERK in MKN1 cells (setting [5]) stood at 239 nM.
Consider `Cc1c([C@@H](C)Nc2nnc(C)c3cnc(O[C@H]4CCN(C)C4)cc23)cccc1C(F)(F)F` [Example 12-11], for which the Ki in assay [1] (setting [4]) was found to be 8.76 nM. Further, the IC50 in the assay with pERK in MKN1 cells (setting [5]) was determined as 142 nM.
On to `Cc1nnc(N[C@H](C)c2cc(F)cc(C#N)c2)c2cc(N3CCOCC3)ccc12` [Example 10-52, (R)-3-fluoro-5-(1-((4-methyl-7-morpholinophthalazin-1-yl)amino)ethyl)benzonitrile], for which the Ki in assay [1] (setting [4]) was found to be 44.5 nM. Also, the IC50 in the assay on pERK in MKN1 cells (setting [5]) turned out to be 286 nM.
On to `Cc1c(C#N)cccc1[C@@H](C)Nc1nnc(C)c2ccc(N3C[C@H]4C[C@@H]3CO4)cc12` [Example 10-54, 3-((R)-1-((7-((1R,4R)-2-oxa-5-azabicyclo[2.2.1]heptan-5-yl)-4-methylphthalazin-1-yl)amino)ethyl)-2-methylbenzonitrile Formate salt], for which, in assay [1] (setting [2]), the Ki was found to be 1.34 nM. The same molecule gave an IC50 in the assay on pERK in MKN1 cells (MKN-1) of 48 nM.
Take `Cc1nnc(N[C@H](C)c2cccc3ccccc23)c2cc(N3CCNCC3)ccc12` [Example 10-43, (R)-4-methyl-N-(1-(naphthalen-1-yl)ethyl)-7-(piperazin-1-yl)phthalazin-1-amine formate salt]: the Ki in assay [1] (setting [2]) amounted to 1.13 nM. Further, in the assay on pERK in MKN1 cells (MKN-1), the IC50 is 138 nM.
In the same order, the values of `Cc1c(C#N)cccc1[C@@H](C)Nc1nnc(C)c2ccc(N3CCNCC3)cc12` [Example 10-55, (R)-2-methyl-3-(1-((4-methyl-7-(piperazin-1-yl)phthalazin-1-yl)amino)ethyl)benzonitrile Formate salt] are 0.76 nM and 76 nM.
In the case of `Cc1nnc(N[C@H](C)c2cc(F)cc(C#N)c2)c2cc(N3CCOCC3)ncc12` [Example 6-17, (R)-3-fluoro-5-(1-((4-methyl-7-morpholinopyrido[3,4-d]pyridazin-1-yl)amino)ethyl)benzonitrile], the Ki in assay [1] (setting [4]) was found to be 56.5 nM. Moreover, in the assay on pERK in MKN1 cells (setting [5]), the IC50 is 412 nM.
On the same counts, the results for `Cc1c([C@@H](C)Nc2nnc(C)c3ccc(N4CCN5C(=O)CC[C@@H]5C4)cc23)cccc1C(F)(F)F` [Example 10-12, (R)-2-(1-methyl-4-(((R)-1-(2-methyl-3-(trifluoromethyl)phenyl)ethyl)amino)phthalazin-6-yl)hexahydropyrrolo[1,2-a]pyrazin-6(2H)-one] are 0.4 nM and 29 nM.
Consider `Cc1nnc(N[C@H](C)c2cc(N)cc(C(F)(F)F)n2)c2cc(N3C[C@H]4CC[C@@H]3CN4C)ccc12` [Example 16-5, N-((R)-1-(4-amino-6-(trifluoromethyl)pyridin-2-yl)ethyl)-4-methyl-7-((1R, 4R)-5-methyl-2,5-diazabicyclo[2.2.2]octan-2-yl)phthalazin-1-amine], for which the Ki in assay [1] (setting [4]) is 5.5 nM. Besides, the IC50 with pERK in MKN1 cells (setting [5]) amounted to 71 nM.
On the same counts, the results for `Cc1c(C#N)cccc1[C@@H](C)Nc1nnc(C)c2c(F)cc(N3CC(C)(O)C3)cc12` [Example 21-10, (R)-3-(1-((5-fluoro-7-(3-hydroxy-3-methylazetidin-1-yl)-4-methylphthalazin-1-yl)amino)ethyl)-2-methylbenzonitrile] are 5.73 nM and 58 nM.
With `Cc1c([C@@H](C)Nc2nnc(C)c3ccc(N4CCN(C)C5(CC5)C4)cc23)cccc1C(F)(F)F` [Example 10-33, (R)-4-methyl-N-(1-(2-methyl-3-(trifluoromethyl)phenyl)ethyl)-7-(4-methyl-4,7-diazaspiro[2.5]octan-7-yl)phthalazin-1-amine], the Ki in assay [1] (setting [4]) came out at 0.69 nM. For the same molecule, in the assay on pERK in MKN1 cells (setting [5]), the IC50 came out at 275 nM.
In the same order, the values of `Cc1cc(F)ccc1[C@@H](C)Nc1nnc(C)c2cnc(N3CC(C)(O)C3)cc12` [Example 12-57] are 92.2 nM and 1860 nM.
On the same counts, the results for `Cc1c([C@@H](C)Nc2nncc3ccc(N4CCn5cncc5C4)cc23)cccc1C(F)(F)F` [Example 1-48, (R)-7-(5,6-dihydroimidazo[1,5-a]pyrazin-7(8H)-yl)-N-(1-(2-methyl-3-(trifluoromethyl)phenyl)ethyl)phthalazin-1-amine] are 0.56 nM and 364 nM.
With `Cc1c([C@@H](C)Nc2nnc(C)c3cnc(N4CC(C)(CO)C4)cc23)cccc1C(F)(F)F` [Example 12-39], the Ki in assay [1] (setting [4]) was found to be 0.91 nM. In the assay with pERK in MKN1 cells (setting [5]), the IC50 came to 75 nM.
On the same counts, the results for `Cc1cc([C@@H](C)Nc2nnc(C)c3ccc(N4CCOCC4)cc23)cc(C(F)(F)F)c1` [Example 10-61, (R)-4-methyl-N-(1-(3-methyl-5-(trifluoromethyl)phenyl)ethyl)-7-morpholinophthalazin-1-amine] are 1.61 nM and 57 nM.
On to `Cc1c([C@@H](C)Nc2nnc(C)c3ccc(N4CC[C@@H](N(C)C)C4)cc23)cccc1C(F)(F)F` [Example 10-26, 7-((R)-3-(dimethylamino)pyrrolidin-1-yl)-4-methyl-N-((R)-1-(2-methyl-3-(trifluoromethyl)phenyl)ethyl)phthalazin-1-amine hydrochloride salt], for which the Ki in assay [1] (setting [2]) stood at 0.47 nM. In addition, the IC50 with pERK in MKN1 cells (MKN-1) amounted to 164 nM.
Consider `Cc1nnc(N[C@H](C)c2cc(O)cc(C(F)(F)F)c2)c2cc(N3CCOCC3)ccc12` [Example 21-2, (R)-3-(1-((4-methyl-7-morpholinophthalazin-1-yl)amino)ethyl)-5-(trifluoromethyl)phenol], for which, in assay [1], the Ki came out at 1.67 nM. In the assay with pERK in MKN1 cells (setting [3]), this molecule registered an IC50 of 137 nM.
With `Cc1c(C#N)cccc1[C@@H](C)Nc1nnc(C)c2cc(C(F)(F)F)c(N3CC(C)(O)C3)cc12` [Example 19-3, (R)-3-(1-((7-(3-hydroxy-3-methylazetidin-1-yl)-4-methyl-6-(trifluoromethyl)phthalazin-1-yl)amino)ethyl)-2-methylbenzonitrile], in assay [1] (setting [4]), the Ki worked out at 19.3 nM. In the assay on pERK in MKN1 cells (setting [5]), the IC50 amounted to 114 nM.
For the molecule `Cc1c(C#N)cccc1[C@@H](C)Nc1nnc(C)c2ccc(N3CC4(CCN(C)C4)C3)cc12` [Example 10-73, (R)-2-methyl-3-(1-((4-methyl-7-(6-methyl-2,6-diazaspiro[3.4]octan-2-yl)phthalazin-1-yl)amino)ethyl)benzonitrile formate salt], the Ki in assay [1] (setting [2]) was 0.63 nM. In addition, in the assay on pERK in MKN1 cells (MKN-1), the IC50 was found to be 49 nM.
Consider `Cc1nnc(N[C@H](C)c2cccc(C(F)F)c2F)c2cc(N3CC(C)(O)C3)ncc12` [Example 12-101], for which the Ki in assay [1] (setting [4]) stood at 1.45 nM. Also, the IC50 in the assay on pERK in MKN1 cells (setting [5]) came to 22 nM.
In the same order, the values of `Cc1ncccc1[C@@H](C)Nc1nnc(C)c2ccc(N3CCOCC3)cc12` [Example 10-72, (R)-4-methyl-N-(1-(2-methylpyridin-3-yl)ethyl)-7-morpholinophthalazin-1-amine] are 46.1 nM and 466 nM.
Take `Cc1c(C#N)cccc1[C@@H](C)Nc1nnc(C)c2ccc(N3CC4(CCN(C)C4=O)C3)cc12` [Example 10-69, (R)-2-methyl-3-(1-((4-methyl-7-(6-methyl-5-oxo-2,6-diazaspiro[3.4]octan-2-yl)phthalazin-1-yl)amino)ethyl)benzonitrile]: the Ki in assay [1] (setting [4]) stood at 3.07 nM. For the same molecule, in the assay on pERK in MKN1 cells (setting [5]), the IC50 was 39 nM.
